Reference: patent US9526713B2, “Use of dencichine in preparation of drug for treating thrombocytopenia” (KUNMING SHENGHUO PHARMACEUTICAL (GROUP) CO., LTD., priority 2013, dated 2016)
Like-named read-outs stand apart in the source and are kept apart here.

Key:
rabbits = assay: Influence of Dencichine for injection on the platelet count of rabbits (single-dose injection); type: in vivo, rabbit
[1] = system: rats with thrombocytopenia caused by carboplatin; assay: Platelet count of rats with thrombocytopenia caused by carboplatin, different prophylactic administration time; type: in vivo, rat
[2] = Body weight of rats suffering thrombopenia induced by carboplatin; type: in vivo, Wistar rats
Method: 81 rats are prepared and randomly divided into eight groups: • blank control group, • high-dose group A (4 mg/kg, intraperitoneal injection, non modeling), • model group (40 mg/kg, tail vein injection), • interleukin-11 group (260 μg/kg, subcutaneous injection), • high dose group B (4 mg/kg, intraperitoneal injection, modeling), • high dose group (4 mg/kg, intraperitoneal injection), • middle dose group (1 mg/kg, intraperitoneal injection), and • low dose group (0.25 mg/kg, intraperitoneal injection),
wherein, the Model group has 11 rats, and the other groups has 10 rats respectively. Before the experiment, the animals are asked to adapt the environment for 2 days, and then blood is taken from their tails for detecting hematological index.
After administration for 10 days, blood is taken from tails of rats from blank control group, high-dose group A, and positive drug group respectively for detecting hematological index.
Thereafter, all animals, except for those of blank group and high-dose group A, are individually injected with carboplatin (40 mg/kg) for modeling, and followed by successive administration for 15 days. During these 15 days, the rats of high-dose group A and high dose group B are stopped from administration, and taken blood from the tail on 5th day, 10th day and 15th day after the modeling respectively for detecting hematological indices. After 15th day of modeling, carboplatin (40 mg/kg) is injected again for a second modeling, and all the groups take successive administration according to the foregoing method, once a day for successive 10 days. Before each hematological indices detection, animals are weighed respectively. Taking the tails' blood of rats on 5th day after the second injection of carboplatin for detecting hematological indices, and taking the tails' blood of rats on 10th day after the second injection of carboplatin for detecting the indices of hematology, reticulocytes and coagulation; and weighing animals and killing them; and weighing liver, thymus, spleen and adrenal gland taken from the dead rats, and calculating out viscera indices; further taking out marrow for doing pathological examination.

ITP model mice = type: in vivo, BALB/C mice
Method: Health BALB/C mice (body weight 18˜22 g) are randomly divided into six groups with 12 mice for each group:
Except the normal group, the mice of the remain five groups are injected with anti-mouse platelet serum (APS) of the guinea pig with a dose of 100 μl/20 g body weight, via intraperitoneal injection, on the 1st, 3rd, 5th, 7th, 9th, 11th and 13th day of the experiment.
The mice of each group are given intragastric administration from the first day. The mice of the dencichine high dose, middle-dose and low dose groups are given intragastric administration at […] respectively. The mice of the prednisone acetate group are given intragastric administration of suspension of prednisone acetate at 5 mg/(kg·d). The mice of other groups are given intragastric administration of same volumetric of normal saline at 0.2 ml/20 g body weight. Intragastric administration for once each day, and continuous administration for 14 days.
20 μl Blood was collected from orbital veins of each mouse of each group before Modeling and on 14th test day respectively, and dropped into anticoagulative tubes, then platelet count was detected by an automated blood analyzers.

For N[C@@H](CNC(=O)C(=O)O)C(=O)O [Dencichine, β-N-oxalyl-L-α, β-diaminopropionic acid], the PLT (rabbits; 0.04 mg/kg, 0 min) was 523.3 ± 78.5 ×10^9/L, the PLT (rabbits; 0.04 mg/kg, 30 min) was 451.0 ± 144.5 ×10^9/L and the PLT (rabbits; 0.04 mg/kg, 60 min) was 504.0 ± 87.8 ×10^9/L. The PLT (rabbits; 0.20 mg/kg, 0 min) was 574.0 ± 64.3 ×10^9/L, the PLT (rabbits; 0.20 mg/kg, 30 min) was 502.3 ± 60.8 ×10^9/L and the PLT (rabbits; 0.20 mg/kg, 60 min) was 518.2 ± 128.5 ×10^9/L. For the same compound, the PLT (rabbits; 1.00 mg/kg, 0 min) was 491.2 ± 163.1 ×10^9/L, the PLT (rabbits; 1.00 mg/kg, 30 min) was 526.5 ± 143.8 ×10^9/L and the PLT (rabbits; 1.00 mg/kg, 60 min) was 541.0 ± 121.6 ×10^9/L. The “change on the platelet count of rabbits” value (rabbits; single-dose injection, various doses) was “no obvious change”, the “platelet count compared with that of model group” value ([1]; prophylactic administration for 3 days) was “no significant difference” and the platelet count ([1]; prophylactic administration for 3 days, after prophylactic administration) was 656.3 ± 67.35 ×10^9/L. The platelet count ([1]; prophylactic administration for 3 days, initial value) was 717.5 ± 276.94 ×10^9/L, the platelet count ([1]; prophylactic administration for 3 days, injection of carboplatin for 10 days) was 110.2 ± 40.43 ×10^9/L and the “platelet count compared with that of model group” value ([1]; prophylactic administration for 5 days and 7 days) was “increase the platelet count”. The platelet count ([1]; prophylactic administration for 5 days, after prophylactic administration) was 773.2 ± 142.02 ×10^9/L, the platelet count ([1]; prophylactic administration for 5 days, initial value) was 736.2 ± 182.37 ×10^9/L and the platelet count ([1]; prophylactic administration for 5 days, injection of carboplatin for 10 days) was 176.2 ± 28.34 ×10^9/L. The platelet count ([1]; prophylactic administration for 7 days, after prophylactic administration) was 772.8 ± 70.63 ×10^9/L, the platelet count ([1]; prophylactic administration for 7 days, initial value) was 743.7 ± 226.92 ×10^9/L and the platelet count ([1]; prophylactic administration for 7 days, injection of carboplatin for 10 days) was 166.2 ± 18.20 ×10^9/L. The “body weight gain compared with control group” value ([2]; high dose group A, 4 mg/kg i.p., non modeling) was “slower body weight gain”, the body weight ([2]; high dose group A, 4 mg/kg i.p., non modeling, 5th day after first injection of carboplatin) was 303.5 ± 17.17 g and the body weight ([2]; high dose group A, 4 mg/kg i.p., non modeling, 5th day after second injection of carboplatin) was 360.7 ± 24.05 g. The body weight ([2]; high dose group A, 4 mg/kg i.p., non modeling, 10th day after first injection of carboplatin) was 315.0 ± 17.29 g, the body weight ([2]; high dose group A, 4 mg/kg i.p., non modeling, 10th day after second injection of carboplatin) was 362.8 ± 28.63 g and the body weight ([2]; high dose group A, 4 mg/kg i.p., non modeling, 15th day after first injection of carboplatin) was 342.5 ± 19.93 g. It also gave a body weight ([2]; high dose group A, 4 mg/kg i.p., non modeling, before experiment) of 187.5 ± 7.37 g, a body weight ([2]; high dose group A, 4 mg/kg i.p., non modeling, prophylactic administration for 10 days) of 281.1 ± 13.19 g and a body weight ([2]; high dose group B, 4 mg/kg i.p., prophylactic, modeling, 5th day after first injection of carboplatin) of 289.9 ± 18.16 g. For the same compound, the body weight ([2]; high dose group B, 4 mg/kg i.p., prophylactic, modeling, 5th day after second injection of carboplatin) was 317.8 ± 25.87 g, the body weight ([2]; high dose group B, 4 mg/kg i.p., prophylactic, modeling, 10th day after first injection of carboplatin) was 308.2 ± 16.69 g and the body weight ([2]; high dose group B, 4 mg/kg i.p., prophylactic, modeling, 10th day after second injection of carboplatin) was 314.7 ± 28.71 g. The body weight ([2]; high dose group B, 4 mg/kg i.p., prophylactic, modeling, 15th day after first injection of carboplatin) was 318.7 ± 17.76 g, the body weight ([2]; high dose group B, 4 mg/kg i.p., prophylactic, modeling, before experiment) was 187.6 ± 9.46 g and the body weight ([2]; high dose group B, 4 mg/kg i.p., prophylactic, modeling, prophylactic administration for 10 days) was 284.7 ± 15.43 g. The body weight ([2]; high dose group, 4 mg/kg i.p., 5th day after first injection of carboplatin) was 298.8 ± 24.10 g, the body weight ([2]; high dose group, 4 mg/kg i.p., 5th day after second injection of carboplatin) was 324.6 ± 23.20 g and the body weight ([2]; high dose group, 4 mg/kg i.p., 10th day after first injection of carboplatin) was 314.0 ± 27.14 g. For the same compound, the body weight ([2]; high dose group, 4 mg/kg i.p., 10th day after second injection of carboplatin) was 316.6 ± 15.35 g, the body weight ([2]; high dose group, 4 mg/kg i.p., 15th day after first injection of carboplatin) was 341.8 ± 32.01 g and the body weight ([2]; high dose group, 4 mg/kg i.p., before experiment) was 188.8 ± 9.64 g. The body weight ([2]; high dose group, 4 mg/kg i.p., prophylactic administration for 10 days) was 285.8 ± 20.94 g, the body weight ([2]; low dose group, 0.25 mg/kg i.p., 5th day after first injection of carboplatin) was 302.6 g and the body weight ([2]; low dose group, 0.25 mg/kg i.p., 5th day after second injection of carboplatin) was 325.9 g. It also gave a body weight ([2]; low dose group, 0.25 mg/kg i.p., 10th day after first injection of carboplatin) of 317.2 g, a body weight ([2]; low dose group, 0.25 mg/kg i.p., 10th day after second injection of carboplatin) of 325.2 g and a body weight ([2]; low dose group, 0.25 mg/kg i.p., 15th day after first injection of carboplatin) of 343.2 g. It also gave a body weight ([2]; low dose group, 0.25 mg/kg i.p., before experiment) of 189.6 g, a body weight ([2]; low dose group, 0.25 mg/kg i.p., prophylactic administration for 10 days) of 288.7 g and a body weight ([2]; middle dose group, 1 mg/kg i.p., 5th day after first injection of carboplatin) of 291.5 ± 26.18 g. It also gave a body weight ([2]; middle dose group, 1 mg/kg i.p., 5th day after second injection of carboplatin) of 328.0 ± 33.38 g, a body weight ([2]; middle dose group, 1 mg/kg i.p., 10th day after first injection of carboplatin) of 315.0 ± 19.28 g and a body weight ([2]; middle dose group, 1 mg/kg i.p., 10th day after second injection of carboplatin) of 334.0 ± 28.15 g. The body weight ([2]; middle dose group, 1 mg/kg i.p., 15th day after first injection of carboplatin) was 329.8 ± 23.77 g, the body weight ([2]; middle dose group, 1 mg/kg i.p., before experiment) was 186.2 ± 11.31 g and the body weight ([2]; middle dose group, 1 mg/kg i.p., prophylactic administration for 10 days) was 282.8 ± 17.29 g. The platelet count (ITP model mice; high dose 6 mg/kg intragastric, Before Modeling) was 751.4 ± 114.3 ×10^9/L, the platelet count (ITP model mice; high dose 6 mg/kg intragastric, Day 14) was 542.1 ± 95.4 ×10^9/L and the platelet count (ITP model mice; low dose 1.5 mg/kg intragastric, Before Modeling) was 745.1 ± 139.6 ×10^9/L. The platelet count (ITP model mice; low dose 1.5 mg/kg intragastric, Day 14) was 428.2 ± 75.1 ×10^9/L, the platelet count (ITP model mice; middle dose 3 mg/kg intragastric, Before Modeling) was 749.2 ± 147.5 ×10^9/L and the platelet count (ITP model mice; middle dose 3 mg/kg intragastric, Day 14) was 484.8 ± 78.4 ×10^9/L.
